Test results taken from patent publication US6369069B1 (Aventis Pharma Deutschland GmbH, priority 1998, dated 2002).

What follows are compounds tested on Na^+-dependent Cl^−/HCO3^− exchanger (NCBE) (assay: Inhibition of the Na+-dependent Cl−/HCO3− exchanger (NCBE) in human endothelial cells (pHi recovery, BCECF fluorescence, FLIPR)). Conditions: 10 μM.
Assay type: cell-based
Summary of the method: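 Fluorescence rise (FLIPR, 2 min, 35 °C) tracked pHi recovery in acid-loaded, BCECF-loaded ECV-304 cells after adding Na+- and HCO3−-containing buffer with 50 μM HOE 642 and graded compound doses. Inhibition was calculated against full-recovery and bicarbonate-free no-recovery controls.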

Compared with `COc1cccc(CN(Cc2ccc(-c3ccccc3S(=O)(=O)NC#N)cc2)C(=O)NC2CCCCC2)c1` [Example 304], `N#CNS(=O)(=O)c1ccccc1-c1ccc(CN(Cc2cccc(Cl)c2)C(=O)NC2CCCCC2)cc1` [Example 308] is lower in “Residual activity % of the NCBE at 10 μM” value: 56.0% for the first, 32.1% for the second.

First: N#CNS(=O)(=O)c1ccccc1-c1ccc(CN(Cc2ccccc2Cl)C(=O)Cc2ccccc2Cl)cc1 [Example 291]
Second: COc1ccccc1CN(Cc1ccc(-c2ccccc2S(=O)(=O)NC#N)cc1)C(=O)Cc1ccccc1 [Example 124]
The “Residual activity % of the NCBE at 10 μM” value of the first is lower: 23.7% for the first, 46.5% for the second.

Going from `N#CNS(=O)(=O)c1ccccc1-c1ccc(CN(Cc2ccccn2)C(=O)Cc2c[nH]c3ccccc23)cc1` [Example 204] to `N#CNS(=O)(=O)c1ccccc1-c1ccc(CN(C(=O)Cc2c[nH]c3ccccc23)C2CC2)cc1` [Example 205], the “Residual activity % of the NCBE at 10 μM” value falls from 52.4% to 41.7%.

Compared with `N#CNS(=O)(=O)c1ccccc1-c1ccc(CN(CC2CCCO2)C(=O)CC2CCCCC2)cc1` (stereo not drawn) [Example 358], `N#CNS(=O)(=O)c1ccccc1-c1ccc(CN(CC2CCCCC2)C(=O)Cc2cccs2)cc1` [Example 256] is lower in “Residual activity % of the NCBE at 10 μM” value: 55.5% for the first, 36.4% for the second.

First: CC(=O)N(CCc1cccs1)Cc1ccc(-c2ccccc2S(=O)(=O)NC#N)cc1 [Example 179]
Second: CC(=O)N(Cc1ccc(-c2ccccc2S(=O)(=O)NC#N)cc1)Cc1ccco1 [Example 178]
The “Residual activity % of the NCBE at 10 μM” value of the first is higher: 78.3% for the first, 70.6% for the second.

Going from `N#CNS(=O)(=O)c1ccccc1-c1ccc(CN(C(=O)CC2CCCCC2)C2CCc3ccccc32)cc1` (stereo not drawn) [Example 354] to `COc1ccccc1C(=O)N(Cc1ccc(-c2ccccc2S(=O)(=O)NC#N)cc1)C1CCCc2ccccc21` (stereo not drawn) [Example 335], the “Residual activity % of the NCBE at 10 μM” value rises from 37.2% to 79.6%.

First: COCCN(Cc1ccc(-c2ccccc2S(=O)(=O)NC#N)cc1)C(=O)C(=O)c1cccs1 [Example 195]
Second: N#CNS(=O)(=O)c1ccccc1-c1ccc(CN(CC2CC2)C(=O)Cc2cccs2)cc1 [Example 144]
The “Residual activity % of the NCBE at 10 μM” value of the first is lower: 58.3% for the first, 60.3% for the second.

Going from `C[C@@H](c1ccccc1)N(Cc1ccc(-c2ccccc2S(=O)(=O)NC#N)cc1)C(=O)C(C(=O)Cc1ccccc1)c1ccccc1` (stereo partly drawn) [Example 136] to `C[C@@H](c1ccccc1)N(Cc1ccc(-c2ccccc2S(=O)(=O)NC#N)cc1)C(=O)C(c1ccccc1)c1ccccc1` [Example 113], the “Residual activity % of the NCBE at 10 μM” value rises from 93.6% to 94.6%.

Going from `COc1ccc(CN(Cc2ccc(-c3ccccc3S(=O)(=O)NC#N)cc2)C(=O)c2ccc(C(C)(C)C)cc2)cc1` [Example 33] to `C/C=C/C(=O)N(Cc1ccc(OC)cc1)Cc1ccc(-c2ccccc2S(=O)(=O)NC#N)cc1` [Example 64], the “Residual activity % of the NCBE at 10 μM” value rises from 67.2% to 88.0%.

First: Cc1ccc(CN(Cc2ccc(-c3ccccc3S(=O)(=O)NC#N)cc2)C(=O)c2ccccc2F)cc1 [Example 95]
Second: N#CNS(=O)(=O)c1ccccc1-c1ccc(CN(Cc2ccc(Cl)cc2)C(=O)c2ccccc2Cl)cc1 [Example 58]
The “Residual activity % of the NCBE at 10 μM” value of the first is higher: 74.7% for the first, 59.4% for the second.

First: CC(C)NC(=O)N(Cc1ccccc1)Cc1ccc(-c2ccccc2S(=O)(=O)NC#N)cc1 [Example 298]
Second: N#CNS(=O)(=O)c1ccccc1-c1ccc(CN(Cc2ccccc2)C(=O)NCc2ccccc2)cc1 [Example 299]
The “Residual activity % of the NCBE at 10 μM” value of the first is higher: 74.7% for the first, 48.6% for the second.

Compared with `COc1ccccc1C(=O)N(Cc1ccc(-c2ccccc2S(=O)(=O)NC#N)cc1)Cc1ccccc1C` [Example 332], `COc1ccccc1C(=O)N(Cc1ccc(-c2ccccc2S(=O)(=O)NC#N)cc1)CC1CCCO1` (stereo not drawn) [Example 338] is higher in “Residual activity % of the NCBE at 10 μM” value: 31.7% for the first, 50.7% for the second.

First: N#CNS(=O)(=O)c1ccccc1-c1ccc(CN(Cc2ccc3c(c2)OCO3)C(=O)Cc2ccccc2)cc1 [Example 127]
Second: N#CNS(=O)(=O)c1ccccc1-c1ccc(CN(Cc2ccc3c(c2)OCO3)C(=O)c2ccccc2Cl)cc1 [Example 107]
The “Residual activity % of the NCBE at 10 μM” value of the first is lower: 61.7% for the first, 96.4% for the second.

Compared with `N#CNS(=O)(=O)c1ccccc1-c1ccc(CN(Cc2ccccc2)C(=O)Nc2c(F)cccc2F)cc1` [Example 297], `COc1cccc(CN(Cc2ccc(-c3ccccc3S(=O)(=O)NC#N)cc2)C(=O)Cc2ccccc2)c1` [Example 126] is lower in “Residual activity % of the NCBE at 10 μM” value: 80.4% for the first, 53.7% for the second.

First: N#CNS(=O)(=O)c1ccccc1-c1ccc(CN(CCO)C(=O)c2ccccc2F)cc1 [Example 38]
Second: CC(=O)N(Cc1ccc(Cl)cc1)Cc1ccc(-c2ccccc2S(=O)(=O)NC#N)cc1 [Example 62]
The “Residual activity % of the NCBE at 10 μM” value of the first is lower: 66.7% for the first, 94.5% for the second.

Going from `N#CNS(=O)(=O)c1ccccc1-c1ccc(CN(Cc2cccs2)C(=O)NC2CCCCC2)cc1` [Example 296] to `N#CNS(=O)(=O)c1ccccc1-c1ccc(CN(Cc2cccc(Cl)c2Cl)C(=O)Cc2cccs2)cc1` [Example 309], the “Residual activity % of the NCBE at 10 μM” value rises from 31.7% to 88.9%.

First: C[C@@H](c1ccccc1)N(Cc1ccc(-c2ccccc2S(=O)(=O)NC#N)cc1)C(=O)c1cccs1 [Example 83]
Second: COC(=O)C(c1ccccc1)N(Cc1ccc(-c2ccccc2S(=O)(=O)NC#N)cc1)C(=O)Cc1cccs1 (stereo not drawn) [Example 268]
The “Residual activity % of the NCBE at 10 μM” value of the first is higher: 97.5% for the first, 79.3% for the second.

Compared with `COC(=O)C(Cc1ccccc1)N(Cc1ccc(-c2ccccc2S(=O)(=O)NC#N)cc1)C(=O)CCCc1cccs1` (stereo not drawn) [Example 193], `COC(=O)C(Cc1ccccc1)N(Cc1ccc(-c2ccccc2S(=O)(=O)NC#N)cc1)C(=O)Cc1ccsc1` (stereo not drawn) [Example 233] is higher in “Residual activity % of the NCBE at 10 μM” value: 62.8% for the first, 68.1% for the second.

Going from `N#CNS(=O)(=O)c1ccccc1-c1ccc(CN(Cc2ccccc2)C(=O)CCCCc2ccccc2)cc1` [Example 244] to `N#CNS(=O)(=O)c1ccccc1-c1ccc(CN(Cc2ccccc2)C(=O)Cc2ccccc2[N+](=O)[O-])cc1` [Example 243], the “Residual activity % of the NCBE at 10 μM” value rises from 60.4% to 99.9%.

Compared with `N#CNS(=O)(=O)c1ccccc1-c1ccc(CN(Cc2ccc(Cl)c(Cl)c2)C(=O)Cc2ccccc2[N+](=O)[O-])cc1` [Example 261], `N#CNS(=O)(=O)c1ccccc1-c1ccc(CN(Cc2ccc(Cl)cc2Cl)C(=O)Cc2ccc(O)cc2)cc1` [Example 283] is higher in “Residual activity % of the NCBE at 10 μM” value: 67.7% for the first, 80.0% for the second.

First: N#CNS(=O)(=O)c1ccccc1-c1ccc(CN(CC2CC2)C(=O)Cc2ccc(Cl)cc2)cc1 [Example 153]
Second: N#CNS(=O)(=O)c1ccccc1-c1ccc(CN(Cc2ccncc2)C(=O)Cc2ccc(Cl)cc2)cc1 [Example 156]
The “Residual activity % of the NCBE at 10 μM” value of the first is lower: 46.1% for the first, 86.0% for the second.

Compared with `N#CNS(=O)(=O)c1ccccc1-c1ccc(CN(CCCc2ccccc2)C(=O)Cc2csc3ccccc23)cc1` [Example 210], `N#CNS(=O)(=O)c1ccccc1-c1ccc(CN(Cc2ccc3ccccc3c2)C(=O)Cc2cccs2)cc1` [Example 310] is lower in “Residual activity % of the NCBE at 10 μM” value: 66.2% for the first, 47.7% for the second.

Going from `COCCC(=O)N(Cc1ccc(-c2ccccc2S(=O)(=O)NC#N)cc1)Cc1cccc(-c2ccccc2)c1` [Example 327] to `CC(C)=CCCC(C)=CCN(Cc1ccc(-c2ccccc2S(=O)(=O)NC#N)cc1)C(=O)Cc1cccs1` [Example 313], the “Residual activity % of the NCBE at 10 μM” value falls from 17.4% to 17.2%.

Same assay, conditions: 10 μM compound; human endothelial cells (ECV-304); related to 100% and 0% pHi recovery controls

For `N#CNS(=O)(=O)c1ccccc1-c1ccc(CN(Cc2ccccc2)C(=O)Cc2cccs2)c(Cl)c1` [Example 554, 4′-{[Benzyl-(2-thiophen-2-ylacetyl)amino]methyl}-3′-chlorobiphenyl-2-sulfonylcyanamide], the “Residual activity of the NCBE at 10 μM” value was 15%.

Same assay, conditions: compound at 10 μM; R(3) to R(7) hydrogen series

Compared with `CC(C(=O)N(Cc1ccccc1)Cc1ccc(-c2ccccc2S(=O)(=O)NC#N)cc1)c1ccsc1` (stereo not drawn) [Example 388], `N#CNS(=O)(=O)c1ccccc1-c1ccc(CN(Cc2ccccc2F)C(=O)CC2CCCC2)cc1` [Example 366] is lower in “Residual activity % of the NCBE at 10 μM” value: 63.7% for the first, 38.4% for the second.

Same assay, conditions: compound at 10 μM; sub-table with R7 substituent

Compared with `Cc1ccc(-c2ccc(CN(Cc3cccs3)C(=O)C(C)c3cccs3)cc2)c(S(=O)(=O)NC#N)c1` (stereo not drawn) [Example 525], `Cc1ccc(-c2ccc(CN(Cc3ccccc3F)C(=O)C(C)c3cccs3)cc2)c(S(=O)(=O)NC#N)c1` (stereo not drawn) [Example 527] is lower in “Residual activity % of the NCBE at 10 μM” value: 74.0% for the first, 67.5% for the second.

Compared with `Cc1ccc(-c2ccc(CN(CCc3ccccc3)C(=O)C(C)c3cccs3)cc2)c(S(=O)(=O)NC#N)c1` (stereo not drawn) [Example 526], `Cc1ccc(-c2ccc(CN(Cc3ccc4ccccc4c3)C(=O)C(C)c3cccs3)cc2)c(S(=O)(=O)NC#N)c1` (stereo not drawn) [Example 523] is higher in “Residual activity % of the NCBE at 10 μM” value: 64.9% for the first, 92.3% for the second.

Compared with `Cc1ccc(-c2ccc(CN(Cc3ccccc3Cl)C(=O)Cc3ccc(Cl)cc3)cc2)c(S(=O)(=O)NC#N)c1` [Example 532], `Cc1ccc(-c2ccc(CN(Cc3cccc(Cl)c3Cl)C(=O)Cc3ccc(Cl)cc3)cc2)c(S(=O)(=O)NC#N)c1` [Example 536] is higher in “Residual activity % of the NCBE at 10 μM” value: 71.0% for the first, 76.3% for the second.

Compared with `Cc1ccc(-c2ccc(CN(Cc3cccc4ccccc34)C(=O)Cc3cccs3)cc2)c(S(=O)(=O)NC#N)c1` [Example 514], `Cc1ccc(-c2ccc(CN(Cc3cccc4ccccc34)C(=O)Cc3ccc(Cl)cc3)cc2)c(S(=O)(=O)NC#N)c1` [Example 530] is higher in “Residual activity % of the NCBE at 10 μM” value: 74.9% for the first, 89.8% for the second.

First: Cc1ccc(-c2ccc(CN(CCc3ccccc3)C(=O)Cc3ccc(Cl)cc3)cc2)c(S(=O)(=O)NC#N)c1 [Example 534]
Second: Cc1ccc(-c2ccc(CN(CCc3ccccc3)C(=O)Cc3ccsc3)cc2)c(S(=O)(=O)NC#N)c1 [Example 542]
The “Residual activity % of the NCBE at 10 μM” value of the first is higher: 80.0% for the first, 67.4% for the second.

With `Cc1ccc(-c2ccc(CN(Cc3cccc(Cl)c3Cl)C(=O)C(C)c3cccs3)cc2)c(S(=O)(=O)NC#N)c1` (stereo not drawn) [Example 528] the “Residual activity % of the NCBE at 10 μM” value was 72.0%.
